{"source": "patent US20060172402A1", "about": "“Production of vanillin in microbial cells” (priority 2002, published 2006)", "origin": "cited, not measured here"}
{"tested_on": "tobacco class II COMT", "conditions": "Maury et al., 1999"}
{"molecule": "O=Cc1ccc(O)c(O)c1", "note": "[3,4-Dihydioxybenzaldehyde, 3,4-dihydroxybenzaldehyde]", "activity of the enzyme against the substrate": "did have activity"}
{"molecule": "COc1cc(/C=C/C(=O)O)cc(O)c1O", "note": "[5-OH-Ferulic acid]", "activity of the enzyme against the substrate": "no activity"}
{"molecule": "O=C(O)/C=C/c1ccc(O)c(O)c1", "note": "[Caffeic acid]", "activity of the enzyme against the substrate": "no activity"}
